Tests used:
BT549 cells = assay: Cell proliferation assay (CellTiter 96 AQueous One, MTS); format: cell-based, human; conditions: TubA 1 μM pretreatment, GC7 0.1 nM to 1 mM
Excerpt: (§1) The next research questions revolved around asking how TGFβ is regulating eIF5A and what other proteins might be involved to completely block TGFβ-induced EMT. This led to histone deacetylase enzyme 6 (HDAC6). HDAC6 has been previously reported to be responsible for the deacetylation of eIF5A in the nucleus in order to make it readily available for hypusination and later transport out in the cytoplasm for functioning as a translation factor. To determine if it were possible to further increase the efficacy or potency of GC7, the inventors co-treated with Tubastatin A (an HDAC6 inhibitor) in 4T1 and 67NR cells as well as MDA-MB-468 cells which initially were not very sensitive to GC7. Triple negative human breast cancer cell line, BT547, was also used to see if another cell line representative of this breast cancer subtype was sensitive towards DHPS and HDAC6 inhibition. (FIGS. 5A and 5B). […] MDA-MB-468 and BT549 cells remained to be insensitive to TubA with or without GC7 pretreatment (FIG. 5A). […]
(§2) The CellTiter 96® AQueous One Solution (Promega) was used to perform cell proliferation experiments. […] Absorbance readings were measured at 490 nm wavelength at 1.5, 2 and 3 hours (absorbance is directly proportional to the number of living cells).

MDA-MB-468 cells = assay: as above; format: cell-based, human; conditions: TubA 1 μM pretreatment, GC7 0.1 nM to 1 mM
Excerpt: as §1, §2

[1] = tested on: eIF5A localization in 67NR cells; assay: Immunofluorescence, subcellular localization of total eIF5A; format: cell-based, mouse; conditions: 1 and 10 μM GC7, 48 hours
Method: Thus, we interrogated the subcellular localization of eIF5A protein using immunofluorescent staining under control as well as 1 and 10 μM GC7 treatment conditions in triple negative breast cancer lines (FIGS. 12A and 12B).
Cells were plated at 1e4 cells/mL at 4 mL in a 6-well plate containing a sterile glass coverslip and allowed to attach overnight. Cells were then treated with appropriate inhibitors at indicated concentrations and time-points. Cells were first fixed using 4% paraformaldehyde for 20 minutes. Cells were then subjected to Triton-X to permeabilize the cells before treatment with specific antibodies in 2% BSA in PBS. After primary antibody incubation for 90 minutes, cells were washed with PBS three times before incubating with secondary antibodies in 2% BSA in PBS for 1 hour. Cells were again washed with PBS three times before set overnight staining with DAPI. Cells were then imaged using a Leica DMI6000 inverted microscope at 100× magnification.

hypusinated eIF5A = assay: Western blot hypusine versus total eIF5A; format: cell-based, mouse, human
Method: The inventors sought to determine if the decrease in cell viability is due to the inhibition of post translational modification of eIF5A. To test this, all cell lines were treated with GC7 at 100 μM for 48 hours—which were the time point and concentration at which a decrease in cell viability was seen (FIG. 2B). The inventors then collected, performed a western blot and immunoblotted for hypusine, total eIF5A and β-actin as a loading control (FIG. 3A). […] To test if this effect is dose-dependent, 4T1, 67NR and MCF10CA1a cells were treated with various concentrations of GC7 ranging from 0.1 μM to 100 μM. Protein lysates were then collected after 48 hours of treatment and performed a western blot. […] To validate this in breast cancer cells, the inventors immunoblotted for PEAK1 as well as E-cadherin, hypusine, total eIF5A and β-actin as a loading control (FIG. 3B). […] The inventors next looked at cell viability at lower concentrations of GC7, such as 1 μM and 10 μM, where a decrease in hypusinated eIF5A is still achieved but the decrease in cell viability is not as great in lower concentrations that do still target hypusinated eIF5A (FIG. 3C).
Cell lines were plated in a 6 well plate at 1e5 cells/mL and left to attach overnight. […] Protein concentrations were determined using Bradford Assay. […] Band intensity graphs were quantified using Fiji software after image thresholding.

Compound: N=C(N)NCCCCCCCN.O=S(=O)(O)O [GC7, N1-Guanyl-1,7-diaminoheptane]
- change of potency of GC7 by TubA pretreatment (cell viability) (BT549 cells): this effect was not seen in the three other cell lines
- change of potency of GC7 by TubA pretreatment (cell viability) (MDA-MB-468 cells): this effect was not seen in the three other cell lines
- nuclear depletion of eIF5A [1]: Nuclear depletion of eIF5A was observed
- decrease in hypusinated eIF5A protein activity (hypusinated eIF5A; 100 μM GC7, 48 hours, 4T1, 67NR, MCF10AT1k, MCF10CA1h and MCF10CA1a): largest decrease in hypusinated eIF5A protein activity
- hypusinated eIF5A levels (band intensity ratio to total eIF5A) (hypusinated eIF5A; GC7 0.1 μM to 100 μM, 48 hours, 4T1, 67NR and MCF10CA1a): consistently decreased

Reference: US20190216751A1, “Compositions and Methods for the Treatment and Prevention of Cancer” (California State University Northridge, priority 2017, published 2019)
